Measured values as given in article PMC12774438, “CBL ubiquitin ligase targets translation as a degrader E3” (Chemical Science, 2025).
Where a SMILES comes first, the peptide text is derived from it.

What was measured:
HeLa cells = test: CellTiter-Glo2.0 cell viability assay; assay type: cell-based; details: for viable cells (lowest): concentrations of 16.10 µM or higher
Procedure: Supplementary Figure 5. Characterisation of cytotoxicity effects of CP-eIFTerminators and […]
A. Measurement of cell viability (%) in HeLa cells following 3-hr treatments with cell-penetrating peptides. A Cell Titer-Glo2.0 cell viability assay was performed to assess viability of HeLa cells following a 3-hr treatment with a dilution series of each CP-eIFTerminator or parental warhead (CP-CBLock or CP-eIF4G1-D5S). The concentration range of each peptide in the 13-point serial dilution was 0.16-24.4 μM.
Data on CP-eIFTerminator2 are not shown as it was insoluble (n = 3, mean ± Standard error of the mean (SEM)).
B. Measurement of cell viability (%) in HeLa cells following 8 hr treatments with cell- […]
viability of HeLa cells following an 8-hr treatment with a dilution series of each CP-eIFTerminator, CP-CBLock, or CP-eIF4G1-D5S. The concentration range of each peptide in the 13-point serial dilution was 0.16-24.4 μM. CP-eIFTerminator2 was not
(1 picture or pasted object on this page, not shown here)
MgCl2. After the liquid was removed, 30 μL 2x LDS mix (prepared as described above) was used to elute the IP samples. The samples were boiled at 92°C for 10 min and 28 μL were loaded on a 4-12% Bis-Tris SDS-PAGE gel, along with the whole cell lysates that were prepared in 75 μL RIPA buffer. The gel was subsequently transferred and western blotted.
Antibodies included anti-actin, anti-HA, anti-K48 antibodies as primaries, as well as IRDye800CW goat anti-mouse IgG secondary antibody and IRDye680LT goat anti-rabbit […]
CellTiter-Glo2.0 Cell Viability Assay
Cells were seeded onto a Greiner 384 small volume plate using a Multidrop TM Combi Reagent Dispenser (Thermo Scientific). The seeding density was 2000 cells/well in a volume of 15 μL per well. After incubating the 384-well plate overnight at 37°C, 5% CO 2, the medium on the plate was removed using a Bluewasher (Blue Cat Bio). […] The plate was read using a PHERAstar FSX (BMG Labtech). Raw data were exported from the Pherastar as a Microsoft Excel file and analysed in Excel, and the processed data were plotted in GraphPad Prism v9.5.1. […]

eIF4E = molecular target: T1, eIF4E (Homo sapiens, UniProt P06730); test: Western blot of endogenous eIF4E (and eIF4A, eIF4G, FITC) in HeLa cells; assay type: cell-based; details: 3 h, result in words; for eIF4E degradation, PROTAC versus individual warheads: 10 µM
T1 construct: assessed the effects on the endogenous levels of eIF4E; endogenous in cells; host or cells: HeLa
T1 sequence (P06730 whole entry): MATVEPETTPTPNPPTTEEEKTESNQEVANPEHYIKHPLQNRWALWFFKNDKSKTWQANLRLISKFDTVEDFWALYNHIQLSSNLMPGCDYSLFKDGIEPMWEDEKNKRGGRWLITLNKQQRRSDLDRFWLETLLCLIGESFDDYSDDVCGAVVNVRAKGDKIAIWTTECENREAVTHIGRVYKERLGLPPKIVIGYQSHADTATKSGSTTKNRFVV
Procedure: Western blot procedures for cell-based assays
Three washes with 1 mL PBS were performed before harvesting cells with a cell lifter. The cells were frozen in liquid nitrogen and stored at -70°C. The lysis buffer comprised 50 mM Tris-HCl (pH 7.5), 150 mM NaCl, 1% Triton-X, 1% SDS, 1 μL benzonase and one tablet of the Pierce TM Protease Inhibitor Tablets, EDTA-free (ThermoFisher Sceintific) in PBS except for HA-tag and Myc-tag IP. As for HA-tag and Myc-tag IP, the lysis buffer consisted of 50 mM Tris-HCl (pH 7.5), 150 mM NaCl, 1 mM EDTA, 1% IGEPAL CA-630, 10% glycerol, 20 μM PMSF, 1 mM DTT, and a single Protease Inhibitor Tablet in PBS.
The cells were lysed in 35 μL lysis buffer at 4°C by vortexing every 10 min over a period of 90 min. Protein concentration in the cell lysate was measured by Bradford assay.
Lysates were immunoprecipitated in addition to inputs when appropriate. SDS-PAGE and immunoblotting analysis were performed subsequently. […]
CellTiter-Glo2.0 Cell Viability Assay […]
A 13-point serial dilution series of 0.163 μM –
24.4 μM of each peptide dissolved in DMSO was dispensed with the highest concentration of DMSO at less than 0.5%. Three replicates were run per condition. The assay plate was incubated for 3 hr or 8 hr at 37°C, 5% CO 2. Following this, the liquid on the assay plate was removed using the Bluewasher. […]
Comparison of CP-eIFTerminator peptides and warheads in HeLa cells
HeLa cells were seeded in 6 cm dishes at a cell density of 1.5 x10^6 per dish. After overnight incubation at 37°C, 5% CO 2, cells were treated with […] along with 10 μM of respective cell-penetrating peptides. Peptides were reconstituted in water immediately before addition to the cell culture. An equal volume of water was added as a negative control.
Cells were harvested 3 hr after peptide incubation at 37°C, 5% CO 2 for western blot analysis.
Anti-actin, anti-eIF4EA, anti-eIF4E, anti-eIF4G, and anti-FITC antibodies, as well as […]
secondary IgG in Table 3 were used for Western blot.
Time course of CP-eIFTerminator4 in HeLa cells
0.5 x 10^6 HeLa cells were seeded in 35 mm dishes. A time course experiment was initiated after overnight incubation at 37°C, 5% CO 2. For each time point (0.5, 3, 6, 12, 24 hr), cells were treated with fresh medium containing 100 ng/mL EGF along with 20 μM CP-eIFTerminator4 or water. All dishes were harvested at the same time, after varying incubations with the peptide.
Titration of CP-eIFTerminator4 in HeLa and U-2 OS cells […]
Immediately after this, 2.5 μM, 10 μM, or 50 μM CP-eIFTerminator4 was added to U-2 OS cells. 5 μM, 10 μM, or 20 μM CP-eIFTerminator4 was added in the case of HeLa cells. […]
15022) or 50 μM chloroquine (Cell Signaling Technology, Cat. No.: 14774S) and incubated for 4 hr at 37 °C, 5% CO 2. […] The cell lysates were analysed by western blot. […]

Molecule | viable cells (lowest) (HeLa cells; 3 h post-peptide treatment) [%] | viable cells (lowest) (HeLa cells; 8 h post-peptide treatment) [%] | concentration at which cytotoxicity was exhibited (HeLa cells; CellTiter-Glo2.0, 0.16–24.4 µM, 3 h and 8 h, 100 ng/mL EGF, n = 3) [µM] | eIF4E degradation, PROTAC versus individual warheads (eIF4E) | effect on eIF4A1, eIF4E and eIF4G1 levels (eIF4E)
CC[C@H](C)[C@H](NC(=O)[C@H](CCCCN)NC(=O)[C@@H](NC(=O)[C@H](CCC(N)=O)NC(=O)[C@@H](N)CCCNC(=N)N)[C@@H](C)CC)C(=O)N[C@@H](Cc1c[nH]c2ccccc12)C(=O)N[C@@H](Cc1ccccc1)C(=O)N[C@@H](CCC(N)=O)C(=O)N[C@@H](CC(N)=O)C(=O)N[C@@H](CCCNC(=N)N)C(=O)N[C@@H](CCCNC(=N)N)C(=O)N[C@@H](CCSC)C(=O)N[C@@H](CCCCN)C(=O)N[C@@H](Cc1c[nH]c2ccccc12)C(=O)N[C@@H](CCCCN)C(=O)N[C@@H](CCCCN)C(=O)NCC(=O)NCC(=O)N[C@@H](CO)C(=O)N[C@@H](CCCCN)C(=O)N[C@@H](CCCCN)C(=O)N[C@@H](CCCNC(=N)N)C(=O)N[C@@H](Cc1ccc(O)cc1)C(=O)N[C@@H](CO)C(=O)N[C@@H](CCCNC(=N)N)C(=O)N[C@@H](CCC(=O)O)C(=O)N[C@@H](Cc1ccccc1)C(=O)N[C@@H](CC(C)C)C(=O)N[C@@H](CC(C)C)C(=O)NCC(=O)N[C@@H](Cc1ccccc1)C(N)=O [CP-eIF4G1-D5S] (H-RQIKIWFQNRRMKWKKGGSKKRYSREFLLGF-NH2; N-terminus assumed) | ≥ 35 | ≥ 25 | ≥ 16.10 | do not trigger eIF4E degradation | minimal effects
N'-RQIKIWFQNRRMKWKKGGSMTVEEMDSWIKSWDQR-C' [CP-CBLock] | – | – | – | do not trigger eIF4E degradation | minimal effects
